# Assay results from ChEMBL document CHEMBL1201862, “PubChem BioAssay data set” (2004).
# Active and inactive are the calls of the source.
# How the values were obtained:
# Vero [1] = test: host cell viability loss, Vero E6 – synthesized analogs, cytotoxicity control for West Nile virus antiviral project, SAR follow-up (AID 2244); assay type: functional; conditions: Chlorocebus sabaeus
# Vero [2] = test: antiviral protection of cells from WNV – synthesized analogs, SAR follow-up (AID 2238); assay type: functional, cell-based; conditions: Chlorocebus sabaeus
# [3] = Luminescence Cell-Based Dose Retest to Confirm Inhibitors of Cancer Stem Cells. [Related pubchem assays (depositor defined):AID2717, AID2721]; assay type: functional; conditions: Homo sapiens
# Vero [4] = test: inhibition of WNV-induced cytopathic effect – cell-based, CPE readout (AID 1621); assay type: functional; conditions: Chlorocebus sabaeus
# [5] = target: T1, Short transient receptor potential channel 4 (Mus musculus, UniProt Q9QUQ5); test: potentiation of DAMGO-evoked TRPC4 calcium signal – cell-based, HEK293 TRPC4/mu-opioid, Fluo-4 calcium, EC20 DAMGO, dose response (AID 434941); assay type: functional
# T1 sequence (Q9QUQ5 whole entry): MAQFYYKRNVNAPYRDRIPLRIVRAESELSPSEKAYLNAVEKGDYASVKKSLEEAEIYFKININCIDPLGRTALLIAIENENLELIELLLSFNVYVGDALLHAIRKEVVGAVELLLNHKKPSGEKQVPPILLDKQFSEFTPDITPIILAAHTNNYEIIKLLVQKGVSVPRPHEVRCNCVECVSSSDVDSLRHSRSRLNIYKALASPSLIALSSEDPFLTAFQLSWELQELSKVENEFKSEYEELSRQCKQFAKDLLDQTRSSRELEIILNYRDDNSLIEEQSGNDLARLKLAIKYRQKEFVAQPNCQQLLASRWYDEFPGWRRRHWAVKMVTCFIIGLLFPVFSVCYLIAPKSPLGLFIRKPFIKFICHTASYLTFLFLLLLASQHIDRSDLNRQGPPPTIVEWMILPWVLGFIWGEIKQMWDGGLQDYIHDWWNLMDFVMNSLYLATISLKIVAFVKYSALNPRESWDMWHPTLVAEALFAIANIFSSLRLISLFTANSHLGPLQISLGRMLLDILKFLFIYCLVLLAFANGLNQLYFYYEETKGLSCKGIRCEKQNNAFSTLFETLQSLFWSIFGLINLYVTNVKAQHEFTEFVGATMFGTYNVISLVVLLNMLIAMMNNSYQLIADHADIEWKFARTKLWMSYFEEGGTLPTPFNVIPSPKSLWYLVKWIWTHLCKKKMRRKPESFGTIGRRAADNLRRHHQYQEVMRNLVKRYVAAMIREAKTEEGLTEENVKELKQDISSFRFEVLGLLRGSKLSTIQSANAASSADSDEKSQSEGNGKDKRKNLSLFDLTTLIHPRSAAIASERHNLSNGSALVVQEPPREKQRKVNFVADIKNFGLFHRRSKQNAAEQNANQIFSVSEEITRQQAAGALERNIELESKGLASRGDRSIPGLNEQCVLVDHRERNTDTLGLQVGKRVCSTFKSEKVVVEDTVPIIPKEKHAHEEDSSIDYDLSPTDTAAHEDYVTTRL
# Hexokinase = Hexokinase (Trypanosoma brucei, UniProt Q38C41); test: Confirmation assay for inhibitors of Trypanosoma brucei hexokinase 1-Analogue-first series. [Related pubchem assays (depositor defined):AID1430, AID1632, AID2516, AID2560, AID2579, AID2600, AID449725, AID492951]; assay type: functional
# Hexokinase-1 = Hexokinase-1 (Homo sapiens, UniProt P19367); test: HK1 enzyme activation by HKDC1 hits – biochemical, selectivity assay for HKDC1 activator project, dose response (AID 504762); assay type: functional
# Hexokinase HKDC1 = target: T2, Hexokinase HKDC1 (Homo sapiens, UniProt Q2TB90); test: inhibition of HKDC1 glucose phosphorylation – biochemical, W721R variant, dose response (AID 504729); assay type: functional
# T2 sequence (Q2TB90 whole entry): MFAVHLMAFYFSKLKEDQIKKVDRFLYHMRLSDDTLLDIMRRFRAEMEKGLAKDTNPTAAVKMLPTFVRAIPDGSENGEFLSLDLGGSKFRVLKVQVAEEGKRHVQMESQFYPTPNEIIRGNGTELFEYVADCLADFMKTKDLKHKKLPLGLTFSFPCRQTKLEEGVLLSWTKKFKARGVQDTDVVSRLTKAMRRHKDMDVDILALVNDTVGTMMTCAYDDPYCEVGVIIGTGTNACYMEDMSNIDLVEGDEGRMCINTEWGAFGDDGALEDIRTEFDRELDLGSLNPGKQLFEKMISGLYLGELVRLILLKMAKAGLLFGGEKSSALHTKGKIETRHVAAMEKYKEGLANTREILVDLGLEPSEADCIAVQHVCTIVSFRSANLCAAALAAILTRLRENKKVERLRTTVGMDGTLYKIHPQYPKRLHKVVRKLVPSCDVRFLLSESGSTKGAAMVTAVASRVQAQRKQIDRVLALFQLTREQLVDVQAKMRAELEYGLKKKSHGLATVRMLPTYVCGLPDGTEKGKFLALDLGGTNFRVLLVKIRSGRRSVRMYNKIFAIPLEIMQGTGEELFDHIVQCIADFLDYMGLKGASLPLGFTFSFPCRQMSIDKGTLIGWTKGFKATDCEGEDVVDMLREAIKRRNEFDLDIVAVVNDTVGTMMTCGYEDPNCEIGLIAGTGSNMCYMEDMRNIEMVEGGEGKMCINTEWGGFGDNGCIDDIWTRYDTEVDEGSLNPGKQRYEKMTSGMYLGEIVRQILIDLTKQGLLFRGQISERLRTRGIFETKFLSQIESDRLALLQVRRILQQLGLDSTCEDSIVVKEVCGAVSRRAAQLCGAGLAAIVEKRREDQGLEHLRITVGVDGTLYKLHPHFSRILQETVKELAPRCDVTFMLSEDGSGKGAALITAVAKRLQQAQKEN
# [6] = target: Envelope glycoprotein gp160 (Human immunodeficiency virus 1, UniProt Q6QLK5); test: cell-free HIV fusion peptide-binding blockers – biochemical, uHTS, fluorescence dequenching, […] (AID 1986)
# Aminopeptidase N = target: T3, Aminopeptidase N (Plasmodium falciparum FcB1/Columbia, UniProt O96935); test: malaria alanyl aminopeptidase activity blockers – biochemical, fluorogenic H-Leu-NHMec substrate, 1536-well (AID 1445); set-up: species or system Plasmodium falciparum 3D7, 3D7
# T3 sequence (O96935 whole entry): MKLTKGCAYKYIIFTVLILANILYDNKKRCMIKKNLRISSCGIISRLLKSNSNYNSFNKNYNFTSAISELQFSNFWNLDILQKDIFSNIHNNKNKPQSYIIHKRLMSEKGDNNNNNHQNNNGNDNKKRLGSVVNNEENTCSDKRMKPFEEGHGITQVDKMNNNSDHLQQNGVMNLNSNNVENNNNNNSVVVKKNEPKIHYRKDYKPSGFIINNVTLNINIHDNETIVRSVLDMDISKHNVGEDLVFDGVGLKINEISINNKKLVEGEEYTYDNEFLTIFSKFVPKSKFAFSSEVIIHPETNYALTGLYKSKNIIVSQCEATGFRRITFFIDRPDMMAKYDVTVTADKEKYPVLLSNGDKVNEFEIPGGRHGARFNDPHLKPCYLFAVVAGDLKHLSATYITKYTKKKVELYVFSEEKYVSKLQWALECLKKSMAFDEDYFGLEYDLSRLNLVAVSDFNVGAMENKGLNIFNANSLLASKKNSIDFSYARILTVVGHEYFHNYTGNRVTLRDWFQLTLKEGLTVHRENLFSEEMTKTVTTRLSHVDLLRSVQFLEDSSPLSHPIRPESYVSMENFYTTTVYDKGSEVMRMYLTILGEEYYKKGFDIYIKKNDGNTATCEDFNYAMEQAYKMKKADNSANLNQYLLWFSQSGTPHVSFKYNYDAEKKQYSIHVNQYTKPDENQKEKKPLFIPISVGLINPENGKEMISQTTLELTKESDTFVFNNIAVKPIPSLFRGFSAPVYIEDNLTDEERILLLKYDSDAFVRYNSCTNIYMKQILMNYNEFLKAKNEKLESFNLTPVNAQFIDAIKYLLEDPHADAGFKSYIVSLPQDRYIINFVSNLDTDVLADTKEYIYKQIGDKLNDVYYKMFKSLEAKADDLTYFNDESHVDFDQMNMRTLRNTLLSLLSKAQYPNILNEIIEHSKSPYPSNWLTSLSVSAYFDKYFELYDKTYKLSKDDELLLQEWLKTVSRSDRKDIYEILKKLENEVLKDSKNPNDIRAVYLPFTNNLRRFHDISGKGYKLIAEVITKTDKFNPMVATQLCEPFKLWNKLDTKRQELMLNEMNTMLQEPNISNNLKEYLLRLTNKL
# Streptococcus = test: GAS UMAA2166 growth inhibition – luminescence, BacTiterGlo, counter-screen for streptokinase expression inhibitor project, dose response (AID 1915); assay type: functional, organism-based;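 note: potency for reduction of bacterial viability or growth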
# [7] = target: T4, Calpain-2 catalytic subunit (Sus scrofa, UniProt P43367); test: m-calpain protease blockers, concentration series – biochemical, fluorogenic peptide substrate, dose response (AID 1420); assay type: functional
# T4 sequence (P43367 whole entry): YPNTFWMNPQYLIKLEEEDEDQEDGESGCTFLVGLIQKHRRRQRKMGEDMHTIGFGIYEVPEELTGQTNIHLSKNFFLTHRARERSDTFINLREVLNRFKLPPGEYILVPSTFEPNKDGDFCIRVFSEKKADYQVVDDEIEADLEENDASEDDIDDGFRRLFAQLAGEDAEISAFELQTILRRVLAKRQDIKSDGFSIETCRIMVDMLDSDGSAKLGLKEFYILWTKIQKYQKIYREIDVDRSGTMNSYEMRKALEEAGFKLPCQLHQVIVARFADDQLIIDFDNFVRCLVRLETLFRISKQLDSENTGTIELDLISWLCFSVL
# [8] = target: Bifunctional protein GlmU (Mycobacterium tuberculosis, UniProt P9WMN3); test: Inhibitors of Mycobacterial Glucosamine-1-phosphate acetyl transferase (GlmU). Secondary screen.; set-up: species or system Mycobacterium tuberculosis H37Rv
# Fatty acid synthase [9] = target: T5, Fatty acid synthase (Homo sapiens, UniProt P49327); test: inhibition of human FAS-TE enzyme activity – biochemical, endpoint fluorescence intensity, uHTS hits, dose response (AID 624327); assay type: functional;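 note: fluorescence from hydrolysis of an O-methyl fluorescein acyl ester substrate by the enzyme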
# [10] = test system: Streptococcus sp. 'group A'; test: Streptococcus pyogenes SK(-)GAS viability under kanamycin – luminescence, BacTiterGlo, confirmation, counter-screen for streptokinase expression inhibitor project, dose response (AID 1900); assay type: functional, organism-based
# Fatty acid synthase [11] = target: T5, Fatty acid synthase; test: inhibition of human FAS-TE enzyme activity – biochemical, kinetic fluorescence intensity, dose response (AID 624326); assay type: functional;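 note: rate of fluorescence rise from hydrolysis of a fluorogenic O-methyl fluorescein ester substrate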
# Streptokinase A = target: T6, Streptokinase A (Streptococcus pyogenes serotype M1, UniProt P10520); test: viability-normalized secreted streptokinase activity reduction – plasminogen activation absorbance, OD405, dose response (AID 1914); assay type: functional, Streptococcus pyogenes M1 GAS;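 note: secreted streptokinase activity via plasminogen activation per viability signal from cell pellet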
# T6 sequence (P10520 whole entry): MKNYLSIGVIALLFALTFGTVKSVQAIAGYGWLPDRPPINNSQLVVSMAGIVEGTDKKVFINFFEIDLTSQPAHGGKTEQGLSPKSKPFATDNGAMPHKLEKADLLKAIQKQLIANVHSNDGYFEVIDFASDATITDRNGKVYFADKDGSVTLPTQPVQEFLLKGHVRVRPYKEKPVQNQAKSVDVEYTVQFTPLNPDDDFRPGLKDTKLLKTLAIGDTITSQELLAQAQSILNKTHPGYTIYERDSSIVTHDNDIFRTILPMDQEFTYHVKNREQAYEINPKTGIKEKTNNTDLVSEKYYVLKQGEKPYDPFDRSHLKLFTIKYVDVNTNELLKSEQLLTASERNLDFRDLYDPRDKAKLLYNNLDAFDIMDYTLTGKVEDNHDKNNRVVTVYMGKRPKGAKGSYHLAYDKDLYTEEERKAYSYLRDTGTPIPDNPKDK
# 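Throughout, for AC50: cells exposed to compound for roughly 70 hours or longer before luminescence read.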
# T5 sequence (P49327 whole entry): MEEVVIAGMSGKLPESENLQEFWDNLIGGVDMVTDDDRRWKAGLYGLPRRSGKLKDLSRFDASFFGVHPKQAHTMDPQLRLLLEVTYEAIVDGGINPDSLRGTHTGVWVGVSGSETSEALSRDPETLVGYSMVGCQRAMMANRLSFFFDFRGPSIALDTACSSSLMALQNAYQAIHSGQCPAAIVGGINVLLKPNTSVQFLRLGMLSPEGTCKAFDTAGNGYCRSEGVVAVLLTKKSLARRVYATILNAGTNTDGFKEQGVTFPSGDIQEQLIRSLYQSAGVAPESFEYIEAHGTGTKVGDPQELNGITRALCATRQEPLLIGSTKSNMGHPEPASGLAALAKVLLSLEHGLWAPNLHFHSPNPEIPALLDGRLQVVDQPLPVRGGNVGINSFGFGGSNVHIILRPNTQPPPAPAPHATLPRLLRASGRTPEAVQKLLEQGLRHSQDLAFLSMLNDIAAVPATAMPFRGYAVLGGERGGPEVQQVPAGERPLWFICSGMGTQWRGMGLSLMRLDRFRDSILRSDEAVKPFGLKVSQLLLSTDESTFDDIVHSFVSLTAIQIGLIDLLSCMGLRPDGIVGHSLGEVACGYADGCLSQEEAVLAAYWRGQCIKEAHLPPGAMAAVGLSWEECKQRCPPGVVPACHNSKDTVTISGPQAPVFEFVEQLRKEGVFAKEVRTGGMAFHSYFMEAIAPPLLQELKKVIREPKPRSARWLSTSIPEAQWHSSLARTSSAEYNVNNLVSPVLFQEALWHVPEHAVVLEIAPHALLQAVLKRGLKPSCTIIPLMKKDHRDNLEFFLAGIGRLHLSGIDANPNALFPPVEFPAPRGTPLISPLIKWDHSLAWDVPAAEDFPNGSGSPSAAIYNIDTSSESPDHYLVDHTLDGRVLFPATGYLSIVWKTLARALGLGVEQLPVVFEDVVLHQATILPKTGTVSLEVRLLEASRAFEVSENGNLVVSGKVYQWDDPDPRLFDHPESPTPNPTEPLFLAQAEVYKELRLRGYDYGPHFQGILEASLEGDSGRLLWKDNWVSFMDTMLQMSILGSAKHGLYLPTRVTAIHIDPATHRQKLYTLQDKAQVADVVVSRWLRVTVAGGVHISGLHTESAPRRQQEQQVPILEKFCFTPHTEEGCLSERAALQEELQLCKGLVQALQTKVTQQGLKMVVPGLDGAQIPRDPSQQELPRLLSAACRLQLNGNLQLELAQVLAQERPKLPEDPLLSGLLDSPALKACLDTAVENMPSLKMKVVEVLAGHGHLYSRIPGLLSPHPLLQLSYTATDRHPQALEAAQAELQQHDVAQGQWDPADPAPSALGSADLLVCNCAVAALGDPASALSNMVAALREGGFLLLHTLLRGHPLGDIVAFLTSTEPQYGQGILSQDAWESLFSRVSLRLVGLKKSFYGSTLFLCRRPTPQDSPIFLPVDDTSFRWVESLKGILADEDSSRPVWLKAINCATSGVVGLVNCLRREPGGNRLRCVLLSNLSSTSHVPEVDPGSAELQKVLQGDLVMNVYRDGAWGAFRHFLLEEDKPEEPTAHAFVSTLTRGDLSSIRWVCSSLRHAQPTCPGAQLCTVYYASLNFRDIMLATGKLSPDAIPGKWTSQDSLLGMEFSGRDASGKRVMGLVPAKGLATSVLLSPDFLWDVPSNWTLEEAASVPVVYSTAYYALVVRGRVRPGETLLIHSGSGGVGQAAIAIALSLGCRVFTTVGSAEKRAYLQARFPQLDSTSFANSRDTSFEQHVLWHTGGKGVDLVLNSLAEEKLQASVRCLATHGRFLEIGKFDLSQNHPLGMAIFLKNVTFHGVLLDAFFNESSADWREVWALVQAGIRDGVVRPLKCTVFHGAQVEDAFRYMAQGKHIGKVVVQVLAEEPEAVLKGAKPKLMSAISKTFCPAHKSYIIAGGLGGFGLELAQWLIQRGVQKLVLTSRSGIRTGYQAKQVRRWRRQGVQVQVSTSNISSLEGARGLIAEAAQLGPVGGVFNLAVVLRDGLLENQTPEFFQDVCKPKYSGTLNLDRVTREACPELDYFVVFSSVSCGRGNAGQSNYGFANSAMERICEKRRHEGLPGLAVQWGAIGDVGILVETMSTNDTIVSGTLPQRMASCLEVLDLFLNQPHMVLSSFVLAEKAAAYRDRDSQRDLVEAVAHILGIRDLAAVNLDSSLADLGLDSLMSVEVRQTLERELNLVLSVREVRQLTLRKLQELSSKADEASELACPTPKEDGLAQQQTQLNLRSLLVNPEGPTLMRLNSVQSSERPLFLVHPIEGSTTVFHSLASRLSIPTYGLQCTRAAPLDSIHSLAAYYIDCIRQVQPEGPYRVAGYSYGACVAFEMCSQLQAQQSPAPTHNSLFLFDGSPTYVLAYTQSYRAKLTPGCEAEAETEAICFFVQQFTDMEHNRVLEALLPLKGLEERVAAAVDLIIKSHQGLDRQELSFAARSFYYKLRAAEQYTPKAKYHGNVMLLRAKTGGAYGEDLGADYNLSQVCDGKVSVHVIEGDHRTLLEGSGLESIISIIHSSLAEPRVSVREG
# Hexokinase, sequence (Q38C41 whole entry): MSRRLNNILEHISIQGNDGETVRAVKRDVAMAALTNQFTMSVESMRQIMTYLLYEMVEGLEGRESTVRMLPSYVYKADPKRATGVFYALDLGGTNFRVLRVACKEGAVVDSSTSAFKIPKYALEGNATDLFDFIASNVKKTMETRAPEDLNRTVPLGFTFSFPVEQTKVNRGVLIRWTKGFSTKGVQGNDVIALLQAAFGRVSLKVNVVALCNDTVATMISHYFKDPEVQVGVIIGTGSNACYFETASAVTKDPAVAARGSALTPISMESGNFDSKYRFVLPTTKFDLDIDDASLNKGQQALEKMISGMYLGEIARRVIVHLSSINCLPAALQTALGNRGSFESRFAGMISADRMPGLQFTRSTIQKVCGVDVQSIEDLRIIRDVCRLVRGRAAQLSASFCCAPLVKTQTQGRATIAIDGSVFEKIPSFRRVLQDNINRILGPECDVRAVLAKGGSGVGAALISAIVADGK
# Envelope glycoprotein gp160, sequence (Q6QLK5 whole entry, the tested form may be a part): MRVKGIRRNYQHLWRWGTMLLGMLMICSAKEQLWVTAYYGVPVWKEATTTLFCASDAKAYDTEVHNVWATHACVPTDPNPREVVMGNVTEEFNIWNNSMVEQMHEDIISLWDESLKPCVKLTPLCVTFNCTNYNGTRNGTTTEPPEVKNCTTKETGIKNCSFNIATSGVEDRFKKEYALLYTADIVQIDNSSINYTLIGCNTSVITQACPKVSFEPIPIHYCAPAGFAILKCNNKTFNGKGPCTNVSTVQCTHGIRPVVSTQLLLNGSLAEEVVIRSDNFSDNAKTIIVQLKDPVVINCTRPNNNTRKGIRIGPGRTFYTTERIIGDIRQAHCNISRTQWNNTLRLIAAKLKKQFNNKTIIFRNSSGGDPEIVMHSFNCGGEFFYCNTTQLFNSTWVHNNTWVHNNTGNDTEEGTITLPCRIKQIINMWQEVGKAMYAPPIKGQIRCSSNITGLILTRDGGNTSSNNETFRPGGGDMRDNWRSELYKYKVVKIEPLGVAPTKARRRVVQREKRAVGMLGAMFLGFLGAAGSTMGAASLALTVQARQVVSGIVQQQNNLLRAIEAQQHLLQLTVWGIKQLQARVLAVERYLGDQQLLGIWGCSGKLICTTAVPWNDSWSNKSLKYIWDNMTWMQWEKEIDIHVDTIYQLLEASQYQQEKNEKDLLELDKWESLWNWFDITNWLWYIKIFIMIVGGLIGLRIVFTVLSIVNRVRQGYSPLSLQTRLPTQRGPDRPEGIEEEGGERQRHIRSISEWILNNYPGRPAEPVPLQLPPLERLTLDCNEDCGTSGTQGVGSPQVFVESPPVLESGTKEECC
# Bifunctional protein GlmU, sequence (P9WMN3 whole entry): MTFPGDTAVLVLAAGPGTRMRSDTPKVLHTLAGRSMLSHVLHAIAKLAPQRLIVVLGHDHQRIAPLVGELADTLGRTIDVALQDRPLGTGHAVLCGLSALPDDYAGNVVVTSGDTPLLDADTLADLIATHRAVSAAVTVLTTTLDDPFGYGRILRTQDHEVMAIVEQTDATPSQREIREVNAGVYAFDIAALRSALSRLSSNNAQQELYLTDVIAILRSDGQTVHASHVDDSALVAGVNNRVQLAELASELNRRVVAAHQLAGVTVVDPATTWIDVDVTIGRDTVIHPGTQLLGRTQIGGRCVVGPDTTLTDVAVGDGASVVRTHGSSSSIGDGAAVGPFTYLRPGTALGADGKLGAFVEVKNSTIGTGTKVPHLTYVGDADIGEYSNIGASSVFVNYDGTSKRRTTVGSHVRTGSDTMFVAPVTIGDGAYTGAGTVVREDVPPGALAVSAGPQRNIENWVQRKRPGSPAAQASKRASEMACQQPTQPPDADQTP
smiles,measurement,setting,value
CCN(CC)CCCN=C(S)N1CCN(c2nc(-c3ccccc3)cs2)CC1,CC50,Vero [1],15.3 µM (active)
same,IC50,Vero [2],17.3 µM (active)
same,AC50,[3],3.77 µM (active)
same,IC50,Vero [4],> 100 µM (active)
CN(C)CCOc1cc(Cl)cc(Cl)c1,EC50,[5],0.67 µM (active)
CC(C)c1ccc(C(=O)Nc2cc(Cl)ccc2C(=O)O)cc1,IC50,Hexokinase,2.89 µM (active)
O=C(CN(C(=O)CCC(=O)Nc1ccccn1)c1ccc2c(c1)OCO2)NCc1ccc(F)cc1,EC50,Hexokinase-1,> 80 µM (inactive)
same,IC50,Hexokinase HKDC1,> 80 µM (inactive)
O=c1c(C(c2ccc([N+](=O)[O-])cc2)c2c(O)oc3ccccc3c2=O)c(O)oc2ccccc12,IC50,[6],13.8 µM (active)
same,IC50,Aminopeptidase N,34 µM (active)
same,EC50,Streptococcus,102 µM (active)
same,IC50,[7],7.83 µM (active)
same,IC50,[8],122 µM (active)
same,IC50,Fatty acid synthase [9],4.65 µM (active)
same,EC50,[10],8.09 µM (active)
same,IC50,Fatty acid synthase [11],3.67 µM (active)
same,EC50,Streptokinase A,13.4 µM (active)
